Patent US20020013478A1, “Calanolide analogues and methods of their use” (Sarawak Medichem Pharmaceuticals,Inc., priority 1994, published 2002)

Assays:
[1] = tested on: human foreskin fibroblast cells; assay: Cell viability in the CMV plaque reduction assay (MTC); type: cell-based
Text: Five calanolide analogues, prepared as described above, were further evaluated for their anti-HCMV activity in plaque reduction assay against various laboratory and clinical isolates (Towne, AD 169, E. Mann, Coffinan, and C9208).

measles = assay: Measles virus inhibition of viral CPE in BSC-1 cells; type: cell-based; details: Table II footnote g
[2] = tested on: HCMV isolates Towne, AD169, E. Mann, Coffman, C9208; assay: Anti-CMV plaque reduction assay against various laboratory and clinical isolates (Example 40); type: cell-based, human cytomegalovirus
Method: On the date of assay, the drug is made up at twice the desired concentration in 2x MEM and then serially diluted 1:5 in 2x MEM using six concentrations of drug. The initial starting concentration is usually 200 gg/mL down to 0.06 μg/mL. […] The media is then aspirated from the wells and 0.2 mL of virus is added to each well in duplicate with 0.2 mL of media being added to drug toxicity wells. The plates are then incubated for one hour with shaking every fifteen minutes. […] This will give final drug concentrations beginning with 100 μg/mL and ending with 0.03 μg/mL and a final agarose overlay concentration of 0.5%. The drug agarose mixture is applied to each well in 2 mL volume and the plates then incubated for three days, after which the cells were stained with a 1.5% solution of neutral red. At the end of 4-6hr incubation period, the stain is aspirated, and plaques counted using a stereomicroscope at lOx magnification. The procedure again is nearly the same as for HSV with a few minor changes. […] The assay is incubated for 14 days with the additional 1 mL overlays being applied on days four and eight. The procedure for the liquid overlay plaque assay is similar to that using the agarose overlay. The procedure for adding the virus is the same as for the regular plaque assay. The drugs are made up in a concentration to be used in MEM with 2% FBS. The drugs are not made up at 2x concentration as in the previous assays but are made up at the desired concentration. For HSV-1 and HSV-2 assays, an antibody preparation obtained from Baxter Health Care Corporation is diluted 1:500 and added to the media that the drug is diluted in. For CMV and VZV, no antibody in the overlay is utilized. For the CMV assay, additional medium without new drug is added on day five and allowed to incubate for a total of 10 days. For VZV, additional medium is added on day five and incubated for a total of 10 days. At the end of the incubation period for all of the assays, 2 mL of 1:10 dilution of stock neutral is added to each well incubated for six hours. The liquid is then aspirated off and plaques enumerated using a stereomicroscope. Five calanolide analogues, prepared as described above, were further evaluated for their anti-HCMV activity in plaque reduction assay against various laboratory and clinical isolates (Towne, AD 169, E. Mann, Coffinan, and […]).

[3] = tested on: Human lung carcinoma (A549) cells; assay: Cytotoxicity run with the adenovirus assay; details: read-out: Others IC50, against adenovirus type-1; Table II footnote h
VZV = VZV plaque reduction assay in human foreskin fibroblast cells; type: cell-based, varicella zoster virus; details: Table II
Method: Two days prior to use, HFF cells are plated into six-well plates and incubated at 37° C. with 5% CO2 and 90% humidity. On the date of assay, the drug is made up at twice the desired concentration in 2x MEM and then serially diluted 1:5 in 2x MEM using six concentrations of drug. The initial starting concentration is usually 200 gg/mL down to 0.06 μg/mL. The virus to be used is diluted in MEM containing 10% FBS to a desired concentration which will give 20-30 plaques per well. The media is then aspirated from the wells and 0.2 mL of virus is added to each well in duplicate with 0.2 mL of media being added to drug toxicity wells. The plates are then incubated for one hour with shaking every fifteen minutes. After the incubation period, an equal amount of 1% agarose was added to an equal volume of each drug dilution. This will give final drug concentrations beginning with 100 μg/mL and ending with 0.03 μg/mL and a final agarose overlay concentration of 0.5%. The drug agarose mixture is applied to each well in 2 mL volume and the plates then incubated for three days, after which the cells were stained with a 1.5% solution of neutral red. At the end of 4-6hr incubation period, the stain is aspirated, and plaques counted using a stereomicroscope at lOx magnification.
The procedure is essentially the same as for the HSV plaque assay described above with two exceptions:
1. After addition of the drug, the plates are incubated for ten days.
2. On days three and six, an additional 1 mL overlay with equal amounts of 2x MEM and 1% agarose are added.

[4] = tested on: human foreskin fibroblast cells; assay: Toxicity run with the VZV assay, human foreskin fibroblast cells; type: cell-based; details: Table II
Method: [table] […] The media from the wells is then aspirated and 2 mL of each drug concentration is then added to each well. The cells are then incubated in a CO2 incubator at 37° C. for 72 h. At the end of this time, the media-drug solution is removed and the cells washed. […] The cell-media mixture is then pipetted up and down vigorously to break up the cell suspension, and 0.2 mL of the mixture is added to 9.8 mL of Isoton III and counted using a Coulter Counter. Each sample is counted three times with three replicate wells per sample. The procedure for plating cells and adding drug is the same as for the MTT Assay. After drug addition, the plates are incubated for seven days in a CO2 incubator at 37° C. […] This is incubated in the CO2 incubator for one hour. The dye is aspirated and the cells are washed using a Nunc Plate Washer. […] The plates are rotated for 15 minutes and the optical densities are read at 550 nm on a plate reader.

2.2.15 cells = assay: Toxicity in 2.2.15 cells, neutral red dye uptake; type: cell-based, human; details: Table II; read-out: HBV IC50
Method: Cells of 2.2.15 were grown to confluence in 96-well flat-bottomed tissue culture plates and treated with compounds (in 0.2 mL culture medium/well) as described above. Four concentrations of each compound were assayed, each in triplicate cultures, in 3- to 10-fold steps. Untreated control cultures were maintained on each 96-well plate. On each 96-well plate, wells containing no cells were used to correct for light scattering.

HBV = HBV replication in cultures of 2.2.15 cells, extracellular HBV virion DNA (primary assay); details: read-out: HBV EC50; Table II
Method: Both intracellular and extracellular HBV DNA are analyzed in order to (i) allow for verification of compound efficacy and (ii) provide possible data on the target site in the HBV replication pathway for the compound from examination of the pattern of viral replicative forms. The culture medium is changed daily during the treatment period to (i) prevent the buildup of potentially toxic metabolites derived from test compounds and (ii) provide an analysis of HBV virion production during discrete 24-hour intervals which enables a quantitative comparison of any effect on virion production.
The analysis of HBV DNA is performed using blot hybridization techniques (Southern and slot blot) and [^32P]-labeled HBV-specific probes. HBV DNA levels are measured by comparison to known amounts of HBV DNA standards applied to every nitrocellulose membrane (gel or slot blot). An AMBIS beta scanner, which measures the radioactive decay of the hybridized probes directly from the nitrocellulose membranes, is used for the quantitative analysis. Standard curves, generated by multiple analyses, are used to correlate CPM measurements made by the beta scanner with relative levels of target HBV DNA. The levels of HBV virion DNA released into the culture medium are analyzed by a slot blot hybridization procedure.

HCMV = HCMV semi-automated CPE-inhibition assay in human foreskin fibroblast cells; type: cell-based, human cytomegalovirus; details: Table II
[5] = tested on: human foreskin fibroblast cells; assay: Toxicity run with the HCMV assay, human foreskin fibroblast cells; type: cell-based; details: Table II
Method in brief: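 Human foreskin fibroblasts exposed to drug at 37 °C in CO2, either 72 h followed by Coulter Counter counts (triplicate counts, three replicate wells), or seven days followed by dye staining for 1 h and optical density at 550 nm.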

influenza A(H1N1) = assay: Influenza A inhibition of viral CPE in MDCK cells; type: cell-based, influenza A virus; details: Table II footnote i; read-out: Others EC50, against influenza A(H1N1)
[6] = tested on: Madin Darby canine kidney (MDCK) cells; assay: Cytotoxicity run with the influenza assay; type: cell-based; details: Table II footnote i; read-out: Others IC50, against influenza A(H1N1)
Method: Virus strains: A/Texas/36191 (H1N1) (Source: Center for Disease Control and Prevention [CDC]), A/Beijing/2/92 (H3N2) (Source: CDC), B/Panama/45/90 (Source: CDC), A/NWS/33 (H1N1) (Source: American Type Culture Collection [ATCC]). (All but A/NWS/33 are tested in the presence of trypsin). Cell lines: Madin Darby canine kidney (MDCK) cells.

EBV = EBV assay: superinfection of Raji or Daudi cells with P3HR-1, immunofluorescence for EA and VCA; type: cell-based, Epstein-Barr virus; details: Table II
Text: There are two prototypes of infectious EBV. One is exemplified by the virus derived from supernatant fluids of the P3HR-1cell line. This cell line produces nontransforming virus that causes the production of early antigen (EA) after primary infection or superinfection of B cell lines. The other prototype is exemplified by the B-95-8 virus. This virus immortalized cord blood lymphocytes and induced tumors in marmosets.
The virus used in our assays is P3HR-1.
Ramos is an exceptional B cell line derived from Burkitt's lymphoma tumor but containing no detectable EBV genome copies and is EBNA negative. Ramos/AW was obtained by in vitro infection of Ramos with the P3HR-1 virus and contains one resident EBV genome copy/cell. Raji is a Burkitt's lymphoma cell line containing 60 EBV genomes/cell, and will be the primary cell used for screening antiviral activity against EBV EA expression. Daudi is a low level producer that contains 152 EBV genome copies/cell. It spontaneously expresses EBV EA in 0.25%-0.5% of the cells. It will be used in follow-up studies to confirm activity. These cell lines respond to superinfection by EBV by expressing EA(D), EA(R), and VCA. All cell lines are maintained in RPMI-1640 medium supplemented by 10% FCS, L-glutamine and 100 μg/mL gentamicin. The cultures are fed twice weekly and the cell concentration adjusted to 3×10^5/mL. The cells are kept at 37° C. in a humidified atmosphere with 5% CO2.
Cells are infected with the P3HR-1 strain of EBV and the drugs to be tested are added after adsorption (45 minutes at 37° C.) and washing of the cell cultures. The cultures are incubated for two days in complete medium to allow viral gene expression. Following the 48 hr incubation period, the number of cells of each sample are counted and smears made. Monoclonal antibodies to the different EA components and VCA are then added to the cells incubated and washed. This is followed by a fluorescein conjugated rabbit anti-mouse Ig antibody; and the number of fluorescence positive cells in the smears are counted. The total number of cells in the cultures positive for EA or VCA are then calculated and compared.

Raji or Daudi cells = assay: Toxicity run with the EBV assay; type: cell-based, human; details: Table II
Text: IC50 (50% inhibitory concentration) is the concentration required to inhibit cell proliferation by 50%

For `CCCc1cc(=O)oc2c3c(c4c(c12)OC(C)(C)CC4)OC(C)C(C)C3O` (single isomer, unassigned; (-)) [(−)-23], the “MTC (minimum drug concentration that reduced cell viability by 25%)” value ([1]; isolate AD169) was 10 µM, the “MTC (minimum drug concentration that reduced cell viability by 25%)” value ([1]; isolate C9208) was 10 µM and the “MTC (minimum drug concentration that reduced cell viability by 25%)” value ([1]; isolate Coffman) was under 100 µM. The “MTC (minimum drug concentration that reduced cell viability by 25%)” value ([1]; isolate E. Mann) was 10 µM, the “MTC (minimum drug concentration that reduced cell viability by 25%)” value ([1]; isolate Towne) was 10 µM and the “Others EC50, against measles” value (measles) was 20^g μM. The EC50 ([2]; isolate AD169) was 3.16 µM, the EC50 ([2]; isolate C9208) was 2.99 µM and the EC50 ([2]; isolate Coffman) was 3.16 µM. It also gave an EC50 ([2]; isolate E. Mann) of 3.16 µM, an EC50 ([2]; isolate Towne) of 3.16 µM and an IC50 [3] of over 100 µM. The “VZV EC50” value (VZV) was over 4.0 µg/mL, the “VZV IC50” value [4] was 16.0 µg/mL and the IC50 (2.2.15 cells) was 340 µM. The EC50 (HBV) was 3.5 µM, the “HCMV EC50” value (HCMV) was over 4.0 µg/mL and the “HCMV IC50” value [5] was 18.8 µg/mL.

With `CC1Oc2c3c(c4c(-c5ccccc5)cc(=O)oc4c2C(O)C1C)OC(C)(C)C=C3` (single isomer, unassigned; (-)) [(−)-24] the EC50 (influenza A(H1N1)) was 57 µM, the IC50 [6] was over 100 µM and the “VZV EC50” value (VZV) was over 4.0 µg/mL. The “VZV IC50” value [4] was 12.0 µg/mL, the IC50 (2.2.15 cells) was 151 µM and the EC50 (HBV) was over 10 µM. For the same compound, the “EBV EC50” value (EBV) was over 50 µg/mL, the “HCMV EC50” value (HCMV) was over 4.0 µg/mL and the “EBV IC50” value (Raji or Daudi cells) was over 50 µg/mL. The “HCMV IC50” value [5] was 14.4 µg/mL.
